Assay results from PubChem BioAssay AID1918945 (Molecular Pharmacology Branch, DTP, NCI, 2023).

System: 883617-216-R-J1-PDC complex spheroid viability
Assay: Anticancer human tumor 883617-216-R-J1-PDC patient-derived bladder carcinoma cell line growth inhibition
Conditions: for IC50: curve of first compound; for viability, T/C: stronger effect = lower value
From the text: Multicellular complex tumor spheroid response to LSD1 Inhibitor Iadademstat in combination with a variety of drugs and investigational agents in selected tumor cell lines
The current study was undertaken to assess response to LSD1 inhibitors in combination with standard-of-care drugs and investigational agents in solid tumor complex spheroid models as well as in the K-562 leukemia. Complex spheroids include a stromal component modeled by human endothelial cells (HUVEC) and fibroblasts modeled by human mesenchymal stem cells (MSCs). The concentration ranges selected for each drug and investigational agent were based upon clinically achievable concentrations if the clinical Cmax of the agent was known.
Compounds. The drugs and investigational agents used in this study are listed on Table 1. All of the agents used, including staurosporine (NSC755774) and gemcitabine (NSC613327), were obtained from the Developmental Therapeutics Program, NCI. FDA-approved anticancer drugs are available from the NCI at http://dtp.nci.nih.gov/branches/dscb/oncology_drugset_explanation.html. Drugs and investigational agents were >95% pure by proton nuclear magnetic resonance (NMR) and liquid chromatography/mass spectrometry (LC/MS). Stock solutions were prepared at 400x in DMSO, stored at -70 degrees C, and diluted in fresh medium prior to their use. The final concentration of DMSO in cell culture wells never exceeded 0.25% (v/v). The FDA-approved anticancer drug set is available from the Developmental Therapeutics Program at https://dtp.cancer.gov/organization/dscb/obtaining/available_plates.htm. All drugs and investigational agents were tested over a range starting from a high concentration at or near the clinical Cmax and decreasing in half-log increments. If the clinical Cmax for an agent had not been determined, the highest concentration tested was 10 microM.
Cell Lines. The patient-derived cancer cell (PDC) lines: 292921-168-R-J2-PDC, K24384-001-R-PDC, and 521955-158-R2-J5-PDC pancreatic carcinomas, 556581-035-R-J1 ovarian carcinoma, 324938-238-R-J1-PDC, 855422-203-R-J1-PDC and 883617-216-R-J1-PDC urothelial bladder carcinomas, 743489-274-T-PDC renal cell carcinoma, 138582-R-J1 Merkel cell tumor, K60290-347-R-J1 and K57222-313-R-J1-PDC glioblastomas, 653999-131-R-J2-PDC, LG0703-F948-PDC, and 349418-098-R-PDC non-small cell lung carcinomas, 885512-296-R-J2-PDC, 171881-019-R-J1-PDC breast carcinomas and 186277-243-T-J2-PDC and 233499-124-R-J2-PDC colon carcinomas were obtained from the NCI Patient-Derived Models Repository (PDMR, https://pdmr.cancer.gov). The established cell lines NCI/ADR-RES (RRID:CVCL_14520 and OVCAR-5 (RRID:CVCL_1628) ovarian carcinomas, 786-O (RRID:CVCL_1051) and A498 (RRID:CVCL_A498) renal cell carcinoma, NCI-H211 (ATCC, cat. CRL-5824; RRID:CVCL_1529), NCI-H196 (ATCC, cat. CRL-5823, RRID:CVCL_1509), SW 1271 (ATCC, cat. CRL-2177, RRID:CVCL_1716) and NCI-H1876 (ATCC, cat. CRL-5902, RRID:CVCL_1503) small cell lung carcinomas, MDA-MB-231 (RRID:CVCL_0062) and MDA-MB-468 (RRID:CVCL_0419)breast carcinomas (10-12). Pooled donor human umbilical vein endothelial cells (HUVEC, Lonza, cat. CC-2519) and human mesenchymal stem cells (hMSC, Lonza, cat. PT-2501) were purchased from Lonza (Walkersville, MD).
Cell Culture. All cells were maintained in an incubator at 37 degrees C and 5% CO2 with 95% humidity. The PDC lines were cultured according to standard operating procedures established by the NCI PDMR (https://pdmr.cancer.gov). Briefly all PDCs were thawed and cultured in Matrigel-coated flasks prepared with a working solution of 1X Ham's F-12 nutrient mix, without supplementation (Invitrogen, Waltham, MA, cat. 11765054), 100 U/mL penicillin-streptomycin (Invitrogen, cat. 15140122), and 2.5% Matrigel (Corning Inc., Corning, NY, cat. 354248) for the first three passages. […]
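Also: exposure lasted seven days after three days of spheroid growth.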
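For viability, T/C in this document: 100% = DMSO vehicle control luminescence.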

NS(=O)(=O)OCC1CC(n2ccc3c(NC4CCc5ccccc54)ncnc32)CC1O (stereo not given) + NC1CCC(NC2CC2c2ccccc2)CC1
IC50 (second compound 0.1 µM): 399 nM
IC50 (second compound 0.316 µM): 497 nM
IC50 (second compound 1 µM): 453 nM
IC50 (second compound 3.16 µM): 500 nM
IC50 (second compound 10 µM): 392 nM
viability, T/C (second compound 0.1 µM, first compound 0.00949 µM): 111%
viability, T/C (second compound 0.1 µM, first compound 0.03 µM): 121%
viability, T/C (second compound 0.1 µM, first compound 0.0949 µM): 106%
viability, T/C (second compound 0.1 µM, first compound 0.3 µM): 59.8%
viability, T/C (second compound 0.1 µM, first compound 0.949 µM): 20.7%
viability, T/C (second compound 0.1 µM, first compound 3 µM): 15.2%
viability, T/C (second compound 0.316 µM, first compound 0.00949 µM): 118%
viability, T/C (second compound 0.316 µM, first compound 0.03 µM): 113%
viability, T/C (second compound 0.316 µM, first compound 0.0949 µM): 113%
viability, T/C (second compound 0.316 µM, first compound 0.3 µM): 73.8%
viability, T/C (second compound 0.316 µM, first compound 0.949 µM): 19.4%
viability, T/C (second compound 0.316 µM, first compound 3 µM): 15.6%
viability, T/C (second compound 1 µM, first compound 0.00949 µM): 102%
viability, T/C (second compound 1 µM, first compound 0.03 µM): 116%
viability, T/C (second compound 1 µM, first compound 0.0949 µM): 105%
viability, T/C (second compound 1 µM, first compound 0.3 µM): 67%
viability, T/C (second compound 1 µM, first compound 0.949 µM): 19.5%
viability, T/C (second compound 1 µM, first compound 3 µM): 14%
viability, T/C (second compound 3.16 µM, first compound 0.00949 µM): 101%
viability, T/C (second compound 3.16 µM, first compound 0.03 µM): 106%
viability, T/C (second compound 3.16 µM, first compound 0.0949 µM): 99.5%
viability, T/C (second compound 3.16 µM, first compound 0.3 µM): 73.8%
viability, T/C (second compound 3.16 µM, first compound 0.949 µM): 20.2%
viability, T/C (second compound 3.16 µM, first compound 3 µM): 13.7%
viability, T/C (second compound 10 µM, first compound 0.00949 µM): 113%
viability, T/C (second compound 10 µM, first compound 0.03 µM): 117%
viability, T/C (second compound 10 µM, first compound 0.0949 µM): 107%
viability, T/C (second compound 10 µM, first compound 0.3 µM): 58.9%
viability, T/C (second compound 10 µM, first compound 0.949 µM): 20.8%
viability, T/C (second compound 10 µM, first compound 3 µM): 14.6%
